One assay concerns hPMBC. The experiment in a line: Chymotrypsin-like ProteasomeGlo assay in hPBMC. The class given is cell-based. As to conditions: Homo sapiens; read-out: Pglo hPBMC. In outline:
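IC50 derived from luminescent chymotrypsin-like proteasome activity (Suc-LLVY-Glo substrate plus luciferin detection reagent). Measured after 105 min compound exposure at 37 °C, 5% CO2. Cells were human B cells purified from buffy-coat PBMC.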

The test system of another assay is HT-29 cells. The experiment in a line: CellTiter-Glo luminescent cell viability assay with HT-29 cells (72h incubation). The class given is cell-based, human. The following applies: Homo sapiens, HT-29, HT29 cells, read-out: CTG HT29. An outline of the steps:
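Viability read as CellTiter-Glo luminescence after 72 h compound exposure, with 10 μM staurosporine and DMSO as control wells. Seeding 400 cells per well, compound added 24 h post-plating; IC50 from curve fitting.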

The target of assay [1] is T1, β5 subunit of the human constitutive proteasome (CPS) (Homo sapiens, UniProt P28074).
T1 construct: purchased Boston Biochem E-360
Description: β5 inhibition assay, human constitutive proteasome (Suc-LLVY-AMC). The following applies: IC50 class, Suc-LLVY-AMC substrate. The class given is biochemical. As to the method: The enzymatic activity of the β5 subunit of the human constitutive proteasome (CPS) is analyzed. In another assay, which differs from the assay of the human constitutive proteasome only in using the human immunoproteasome (IPS) the enzymatic activity of the β5 subunit of the human immunoproteasome (IPS) is analyzed. […] Inhibition is indicated as IC50 [nM] (“-”=not measured).

In the case of `Cc1ccc2cc1CNC(=O)[C@H](CCc1ccccc1)NC(=O)[C@@H](NC(=O)OCc1ccccc1)CCC(=O)N1CCCC(CCO2)C1` (stereo partly drawn) [Compound 199, benzyl ((9S,12S)-5^4-methyl-8,11,15-trioxo-9-phenethyl-4-oxa-7,10-diaza-1(3,1)-piperidina-5(1,3)-benzenacyclopentadecaphane-12-yl)carbamate], the IC50 (with hPMBC; with HT-29 cells; in assay [1]) was less than 100 nM each time.

`CC(=O)N[C@H]1CCC(=O)N(C)CCCCOc2ccc(C)c(c2)CNC(=O)[C@H](CCc2ccccc2)NC1=O` [Compound 282, N-((11S,14S)-1^4,7-dimethyl-8,12,15-trioxo-1^4-phenethyl-2-oxa-7,13,16-triaza-1(1,3)-benzenacycloheptadecaphane-11-yl)acetamide]: the IC50 is 500 to 1000 nM in the assay on hPMBC, 100 to 500 nM in the assay with HT-29 cells and greater than 5000 nM in assay [1].

Consider `Cc1ccc2cc1CNC(=O)[C@H](CCc1ccccc1)NC(=O)[C@@H](NC(=O)C1CCC(C(F)(F)F)N1)CC(=O)N1CCCC(CCO2)C1` (stereo partly drawn) [Compound 157, N-((9S,12S)-5^4-methyl-8,11,14-trioxo-9-phenethyl-4-oxa-7,10-diaza-1(3,1)-piperidina-5(1,3)-benzenacyclotetradecaphane-12-yl)-5-(trifluoromethyl)pyrrolidine-2-carboxamide], for which the IC50 (in the assay on hPMBC; in the assay with HT-29 cells; in assay [1]) was less than 100 nM each time.

For the compound `Cc1ccc2cc1CNC(=O)[C@H](CCc1ccccc1)NC(=O)[C@@H](NC(=O)CN1CCCC1)CC(=O)N1CCCC(CCO2)C1` (stereo partly drawn) [Compound 89, N-((9S,12S)-5^4-methyl-8,11,14-trioxo-9-phenethyl-4-oxa-7,10-diaza-1(3,1)-piperidina-5(1,3)-benzenacyclotetradecaphane-12-yl)-2-(pyrrolidin-1-yl)acetamide], the IC50 (in the assay with hPMBC; in the assay on HT-29 cells; in assay [1]) was less than 100 nM throughout.

Turning to `Cc1ccc2cc1CNC(=O)[C@H](CCc1ccccc1)NC(=O)[C@@H](NC(=O)[C@@H](N)Cc1ccccc1)CC(=O)N1CCCC(CCO2)C1` (stereo partly drawn) [Compound 179, (2R)-2-amino-N-((9S,12S)-5^4-methyl-8,11,14-trioxo-9-phenethyl-4-oxa-7,10-diaza-1(3,1)-piperidina-5(1,3)-benzenacyclotetradecaphane-12-yl)-3-phenylpropanamide-], the IC50 (with hPMBC; in the assay with HT-29 cells; in assay [1]) was less than 100 nM in each case.

`CC(=O)N[C@H]1CCC(=O)N2CCCC(C2)Oc2ccc(C)c(c2)CNC(=O)[C@H](CCc2ccccc2)NC1=O` (stereo partly drawn) [Compound 148, N-((7S,10S)-3^4-methyl-6,9,13-trioxo-7-phenethyl-2-oxa-5,8-diaza-1(3,1)-piperidina-3(1,3)-benzenacyclotridecaphane-10-yl)acetamide]: the IC50 in the assay on hPMBC fell in the range of 500 to 1000 nM; in the assay with HT-29 cells, 100 to 500 nM; in assay [1], 1000 to 5000 nM.

`Cc1ccc2cc1CNC(=O)[C@H](CCc1ccccc1)NC(=O)[C@@H](NC(=O)C1CC(F)(F)CN1)CC(=O)N1CCCC(CCO2)C1` (stereo partly drawn) [Compound 135, (2S)-4,4-difluoro-N-((9S,12S)-5^4-methyl-8,11,14-trioxo-9-phenethyl-4-oxa-7,10-diaza-1(3,1)-piperidina-5(1,3)-benzenacyclotetradecaphane-12-yl)pyrrolidine-2-carboxamide]: the IC50 (in the assay on hPMBC; in the assay with HT-29 cells; in assay [1]) was less than 100 nM in each case.

As for `Cc1ccc2cc1CNC(=O)[C@@H](CCc1ccccc1)NC(=O)[C@H](NC(=O)OCc1ccccc1)CC(=O)N1CCC[C@H](CCO2)C1` [Compound 290, benzyl ((13R,9R,12R)-5^4-methyl-8,11,14-trioxo-9-phenethyl-4-oxa-7,10-diaza-1(3,1)-piperidina-5(1,3)-benzenacyclotetradecaphane-12-yl)carbamate], the figures for the IC50 (in the assay on hPMBC; with HT-29 cells; in assay [1]) were greater than 5000 nM, 100 to 500 nM and 1000 to 5000 nM, respectively.

With `Cc1ccc2cc1CNC(=O)[C@H](CCc1ccccc1)NC(=O)[C@@H](NC(=O)C(C)(C)CO)CC(=O)N1CCCC(CCO2)C1` (stereo partly drawn) [Compound 284, 3-hydroxy-2,2-dimethyl-N-((9S,12S)-5^4-methyl-8,11,14-trioxo-9-phenethyl-4-oxa-7,10-diaza-1(3,1)-piperidina-5(1,3)-benzenacyclotetradecaphane-12-yl)propanamide], the IC50 (with hPMBC; with HT-29 cells; in assay [1]) was less than 100 nM in each case.

For the compound `Cc1ccc2cc1CNC(=O)[C@H](CCc1ccccc1)NC(=O)[C@@H](NC(=O)C1(F)CCNCC1)CC(=O)N1CCCC(CCO2)C1` (stereo partly drawn) [Compound 134, 4-fluoro-N-((9S,12S)-5^4-methyl-8,11,14-trioxo-9-phenethyl-4-oxa-7,10-diaza-1(3,1)-piperidina-5(1,3)-benzenacyclotetradecaphane-12-yl)piperidine-4-carboxamide], the IC50 (in the assay on hPMBC; in the assay with HT-29 cells; in assay [1]) was less than 100 nM throughout.

With `Cc1ccc2cc1CNC(=O)[C@H](CCc1ccccc1)NC(=O)[C@@H](NC(=O)C(C)(CO)CO)CC(=O)N1CCCC(CCO2)C1` (stereo partly drawn) [Compound 286, 3-hydroxy-2-(hydroxymethyl)-2-methyl-N-((9S,12S)-5^4-methyl-8,11,14-trioxo-9-phenethyl-4-oxa-7,10-diaza-1(3,1)-piperidina-5(1,3)-benzenacyclotetradecaphane-12-yl)propanamide], the IC50 (in the assay on hPMBC; in the assay on HT-29 cells; in assay [1]) was less than 100 nM in each case.

With `Cc1ccc2cc1CNC(=O)[C@H](CCc1ccccc1)NC(=O)[C@@H](NC(=O)C1(C)CCOCC1)CC(=O)N1CCCC(CCO2)C1` (stereo partly drawn) [Compound 288, 4-methyl-N-((9S,12S)-5^4-methyl-8,11,14-trioxo-9-phenethyl-4-oxa-7,10-diaza-1(3,1)-piperidina-5(1,3)-benzenacyclotetradecaphane-12-yl)tetrahydro-2H-pyran-4-carboxamide], the IC50 (with hPMBC; in the assay on HT-29 cells; in assay [1]) was less than 100 nM in each case.

Regarding `CNCCOCC(=O)N[C@H]1CC(=O)N2CCCC(CCOc3ccc(C)c(c3)CNC(=O)[C@H](CCc3ccccc3)NC1=O)C2` (stereo partly drawn) [Compound 130, N-((9S,12S)-5^4-methyl-8,11,14-trioxo-9-phenethyl-4-oxa-7,10-diaza-1(3,1)-piperidina-5(1,3)-benzenacyclotetradecaphane-12-yl)-2-(2-(methylamino)ethoxy)acetamide], the IC50 with hPMBC was less than 100 nM; with HT-29 cells it was 100 to 500 nM; in assay [1] it was less than 100 nM.

For `Cc1ccc2cc1CNC(=O)[C@H](CCc1ccccc1)NC(=O)[C@@H](NC(=O)C1CCNCC1(F)F)CC(=O)N1CCCC(CCO2)C1` (stereo partly drawn) [Compound 152, 3,3-difluoro-N-((9S,12S)-5^4-methyl-8,11,14-trioxo-9-phenethyl-4-oxa-7,10-diaza-1(3,1)-piperidina-5(1,3)-benzenacyclotetradecaphane-12-yl)piperidine-4-carboxamide], the IC50 (in the assay with hPMBC; in the assay on HT-29 cells; in assay [1]) was less than 100 nM each time.

For the compound `Cc1ccc2cc1CNC(=O)[C@H](CCc1ccccc1)NC(=O)[C@@H](NC(=O)CCc1ccc(-c3ccccc3)cc1)CC(=O)N1CCCC(CCO2)C1` (stereo partly drawn) [Compound 176, 3-([1,1′-biphenyl]-4-yl)-N-((9S,12S)-5^4-methyl-8,11,14-trioxo-9-phenethyl-4-oxa-7,10-diaza-1(3,1)-piperidina-5(1,3)-benzenacyclotetradecaphane-12-yl)propanamide], the IC50 (in the assay on hPMBC; in the assay on HT-29 cells; in assay [1]) was less than 100 nM each time.

Take `CCC(CC)(CO)C(=O)N[C@H]1CC(=O)N2CCCC(CCOc3ccc(C)c(c3)CNC(=O)[C@H](CCc3ccccc3)NC1=O)C2` (stereo partly drawn) [Compound 285, 2-ethyl-2-(hydroxymethyl)-N-((9S,12S)-5^4-methyl-8,11,14-trioxo-9-phenethyl-4-oxa-7,10-diaza-1(3,1)-piperidina-5(1,3)-benzenacyclotetradecaphane-12-yl)butanamide]: the IC50 (in the assay on hPMBC; in the assay with HT-29 cells; in assay [1]) was less than 100 nM in each case.

Take `Cc1ccc2cc1CNC(=O)[C@H](Cc1c[nH]c3ccccc13)NC(=O)CCC(=O)N1CCCC(CCO2)C1` (stereo partly drawn) [Compound 77, (9S)-9-((1H-indol-3-yl)methyl)-5^4-methyl-4-oxa-7,10-diaza-1(3,1)-piperidina-5(1,3)-benzenacyclotetradecaphane-8,11,14-trione]: the IC50 with hPMBC is 100 to 500 nM; in the assay on HT-29 cells, 1000 to 5000 nM; in assay [1] it was less than 100 nM.

Take `CC(=O)N[C@H]1CCC(=O)N2CCCC(CCOc3ccc(C)c(c3)CNC(=O)[C@H](CCc3ccccc3)NC1=O)C2` (stereo partly drawn) [Compound 215, N-((9S,12S)-5^4-methyl-8,11,15-trioxo-9-phenethyl-4-oxa-7,10-diaza-1(3,1)-piperidina-5(1,3)-benzenacyclopentadecaphane-12-yl)acetamide]: the IC50 (with hPMBC; in the assay on HT-29 cells; in assay [1]) was less than 100 nM throughout.

In the case of `Cc1ccc2cc1CNC(=O)[C@H](CCc1ccccc1)NC(=O)[C@@H](NC(=O)C(C)(C)C#N)CC(=O)N1CCCC(CCO2)C1` (stereo partly drawn) [Compound 294, 2-cyano-2-methyl-N-((9S,12S)-54-methyl-8,11,14-trioxo-9-phenethyl-4-oxa-7,10-diaza-1(3,1)-piperidina-5(1,3)-benzenacyclotetradecaphane-12-yl)propanamide], the IC50 (with hPMBC; with HT-29 cells; in assay [1]) was less than 100 nM throughout.

Source of the values: US20240415819A1, “MACROCYCLIC COMPOUNDS AS PROTEASOME SUBUNIT BETA TYPE-5 INHIBITORS” (Lead Discovery Center GmbH, priority 2021, published 2024).
